# Data reported in ChEMBL document CHEMBL2218064, “Structure-activity relationship data for chemical series of antagonists of the P2X7 receptor (Supplementary Bioactivity Data for publication CHEMBL1157114)”.
# Target: T1, P2X purinoceptor 7 (Homo sapiens, UniProt Q99572)
# T1 sequence (Q99572 whole entry): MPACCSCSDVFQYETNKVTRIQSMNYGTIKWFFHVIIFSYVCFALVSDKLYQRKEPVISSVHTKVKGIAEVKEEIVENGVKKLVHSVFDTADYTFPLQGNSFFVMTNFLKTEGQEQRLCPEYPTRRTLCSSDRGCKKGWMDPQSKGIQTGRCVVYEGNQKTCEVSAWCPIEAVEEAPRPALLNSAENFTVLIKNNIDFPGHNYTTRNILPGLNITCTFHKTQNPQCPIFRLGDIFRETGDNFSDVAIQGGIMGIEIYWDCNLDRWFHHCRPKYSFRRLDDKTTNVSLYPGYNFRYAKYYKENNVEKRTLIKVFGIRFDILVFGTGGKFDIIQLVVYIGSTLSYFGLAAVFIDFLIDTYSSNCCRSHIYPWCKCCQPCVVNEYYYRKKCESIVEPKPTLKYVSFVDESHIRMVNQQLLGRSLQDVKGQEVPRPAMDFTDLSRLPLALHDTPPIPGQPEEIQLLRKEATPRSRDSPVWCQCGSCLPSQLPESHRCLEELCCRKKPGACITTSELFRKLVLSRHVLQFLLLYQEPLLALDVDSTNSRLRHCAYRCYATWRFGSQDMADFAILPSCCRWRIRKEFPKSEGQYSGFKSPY
# Test: SUPPLEMENTARY: Inhibition of human P2X7 receptor assessed as inhibition of ethidium bromide accumulation. Same assay as CHEMBL1103860
row,Structure (SMILES),IC50
1,Cc1c(CNC(=O)[C@@H]2CCC(=O)N2C(C)C)cccc1C(F)(F)F,3.98 nM
2,Cc1cccc(C)c1N1CCN(Cc2ccc(F)c(F)c2F)C(=O)C1=O,39.8 nM
3,O=C(c1ccc(F)cc1Cl)N1CCn2c(-c3ccccc3)cnc2C1,15.8 nM
4,C[C@H]1CN(Cc2ccc(Cl)cc2Cl)C(=O)C(=O)N1c1ccccc1,158 nM
5,Cn1ncc(F)c1CC(=O)NCc1ccc(Cl)cc1Cl,50.1 nM
6,O=C1C(=O)N(c2ccc(F)cc2Cl)CCN1Cc1ccc(F)cc1Cl,200 nM
7,CN1C(=O)CC[C@H]1C(=O)NCc1ccc(F)cc1Br,39.8 nM
8,CC(C)Oc1cc(F)ccc1N1CCN(C(=O)c2cccc(C(F)(F)F)c2Cl)CC1=O,10 nM
9,Cc1ccccc1CN1CCN(c2cccc(Cl)c2Cl)C(=O)C1=O,251 nM
10,Cc1nn(Cc2ccccn2)c(C)c1CC(=O)NCc1ccc(F)cc1Cl,398 nM
11,Cc1ccc(N2C[C@@H](C(=O)NCc3ccc(Cl)cc3Cl)N(C)C2=O)c(C)n1,15.8 nM
12,CN1C(=O)CC[C@H]1C(=O)NCc1cccc(C(F)(F)F)c1F,25.1 nM
13,O=C1CN(C(=O)c2cccc(C(F)(F)F)c2Cl)CCN1CC1CCCCC1,79.4 nM
14,O=C(c1ccc(Cl)cc1F)N1CCN(c2ccc(F)cc2Cl)C(=O)C1,63.1 nM
15,Cc1ccncc1-n1nc(C)c(CC(=O)NCc2ccc(F)cc2Cl)c1C,398 nM
16,O=C1C(=O)N(c2ccccc2F)CCN1Cc1ccc(F)cc1Cl,126 nM
17,Cc1nn(-c2ccccc2)c(C)c1CC(=O)NCc1ccc(F)c(F)c1F,63.1 nM
18,Cc1cnc2n1CCN(C(=O)c1cccc(C(F)(F)F)c1Cl)C2,50.1 nM
19,O=C(c1ccc(Cl)cc1Cl)N1CCn2c(nnc2-c2ccncn2)C1,31.6 nM
20,CN1[C@H](C(=O)NCc2ccc(F)cc2C(F)(F)F)CCS1(=O)=O,398 nM
21,CN1C(=O)N(CCCN2CCOCC2)CC1C(=O)NCc1cccc(C(F)(F)F)c1Cl (stereo unspecified),50.1 nM
22,O=C(c1cccc(C(F)(F)F)c1Cl)N1CCN(c2ccccc2Cl)C(=O)C1,5.01 nM
23,CCC(C)N1C(=O)CC[C@@H]1C(=O)NCc1cccc(C(F)(F)F)c1Cl (stereo partly specified),63.1 nM
24,Cc1nc(-c2nnc3n2CCN(C(=O)c2ccc(F)cc2Cl)C3)cs1,158 nM
25,Cn1ncc(Cl)c1CC(=O)NCc1ccc(F)c(F)c1Cl,31.6 nM
26,Cc1ccc(-n2nc(C)c(CC(=O)NCc3ccc(F)cc3Cl)c2C)c(C)n1,398 nM
27,CN1C(=O)N(c2cc(C(F)(F)F)ncn2)C[C@H]1C(=O)NCc1ccc(Cl)cc1Cl,31.6 nM
28,N#CCCN1CCN(C(=O)c2cccc(C(F)(F)F)c2Cl)CC1=O,316 nM

row,Structure (SMILES),IC50
1,O=C(c1ccccc1Cl)N1CCn2c(nnc2-c2ccc(F)cn2)C1,39.8 nM
2,O=C(c1cccc(Cl)c1Cl)N1CCn2c(nnc2-c2cscn2)C1,1 nM
3,Cc1nn(-c2ccccc2F)c(C)c1CC(=O)NCc1ccc(F)cc1Cl,158 nM
4,Cc1nn(-c2ccccc2)c(C)c1CC(=O)NCc1cc(Cl)ccc1Cl,631 nM
5,Cc1nn(CCN2CCCC2)c(C)c1CC(=O)NCc1ccc(F)cc1Cl,126 nM
6,CN1C[C@@H](C(=O)NCc2ccc(F)c(F)c2Cl)N(C)C1=O,3.16 nM
7,Cc1nn(-c2ccc(Cl)cn2)c(C)c1CC(=O)NCc1ccc(F)cc1Cl,251 nM
8,O=C(c1ccc(Cl)cc1Cl)N1CCN(c2ccccc2Cl)C(=O)C1,25.1 nM
9,O=C1C(=O)N(c2cccc(Cl)c2N2CCOCC2)CCN1Cc1ccc(F)cc1Cl,39.8 nM
10,Cc1cccc(N2CCN(Cc3ccc(F)cc3Cl)C(=O)C2=O)c1F,158 nM
11,Cc1ccccc1N1CCN(Cc2ccc(F)cc2C(F)(F)F)C(=O)C1=O,126 nM
12,CCN1C(=O)CC[C@@H]1C(=O)NCc1ccc(Cl)c(C(F)(F)F)c1,316 nM
13,O=C(c1cccc(C(F)(F)F)c1Cl)N1CCN(c2cccc(N3CCOCC3)c2Cl)C(=O)C1,12.6 nM
14,CCN1C(=O)CC[C@H]1C(=O)NCc1c(C)cccc1Cl,100 nM
15,O=C(c1cccc(C(F)(F)F)c1Cl)N1CCn2c(nnc2-c2ccccc2)C1,3.16 nM
16,O=C(NCc1ccc(Cl)cc1Cl)C1CC(=O)N(C2CC2)C1 (stereo unspecified),126 nM
17,O=C(c1ccc(F)cc1Cl)N1CCn2c(Br)nnc2C1,316 nM
18,Cc1cc(F)ccc1N1CCN(Cc2ccc(F)cc2Cl)C(=O)C1=O,251 nM
19,CN1C(=O)N(c2ccnn2C)C[C@H]1C(=O)NCc1ccc(F)c(F)c1Cl,20 nM
20,CN1C[C@@H](C(=O)NCc2ccc(F)cc2C(F)(F)F)N(C)C1=O,50.1 nM
21,Cc1c(CC(=O)NCc2ccc(F)cc2Cl)cnn1-c1ccc(F)cc1,251 nM
22,O=C(c1cccc(C(F)(F)F)c1Cl)N1CCn2c(nnc2-c2ccccc2O)C1,2.51 nM
23,O=C(c1ccc(F)cc1Cl)N1CCN(c2cccc3ccccc23)C(=O)C1,100 nM
24,Cc1nn(C2CCN(C)CC2)c(C)c1CC(=O)NCc1ccc(F)cc1Cl,126 nM
25,Cn1nccc1CC(=O)NCc1cccc(C(F)(F)F)c1Cl,25.1 nM
26,CN1C(=O)N(c2nccc(C(F)(F)F)n2)C[C@H]1C(=O)NCc1ccc(F)cc1Cl,100 nM
27,Cc1ccccc1N1CCN(Cc2cccc(Cl)c2Cl)C(=O)C1=O,25.1 nM

# Further lines, results first:
row,IC50,Structure (SMILES)
1,200 nM,CCN1C(=O)CC[C@@H]1C(=O)NCc1ccc(F)c(F)c1Cl
2,63.1 nM,Cc1nn(-c2ccc(N3CCCC3=O)cc2)c(C)c1CC(=O)NCc1ccc(F)cc1Cl
3,158 nM,O=C1CN(C(=O)c2cccc(C(F)(F)F)c2Cl)CCN1Cc1ccccn1
4,100 nM,CCN1C(=O)[C@H](Cc2ccccc2)C[C@H]1C(=O)NCc1ccc(F)cc1Cl
5,15.8 nM,Cc1nn(-c2ccc(C(=O)NCc3ccccn3)cc2)c(C)c1CC(=O)NCc1ccc(F)cc1Cl
6,126 nM,CCN1C(=O)CC[C@@H]1C(=O)NCc1ccc(Cl)cc1C
7,200 nM,Cc1nn(CCN(C)CCO)c(C)c1CC(=O)NCc1ccc(F)cc1Cl
8,126 nM,O=C1C(=O)N(c2ccccc2N2CCOCC2)CCN1Cc1ccc(F)cc1Cl
9,63.1 nM,Cc1nn(-c2ccncc2)c(C)c1CC(=O)NCc1ccc(F)cc1Cl
10,31.6 nM,O=C(c1ccc(F)cc1Cl)N1CCn2c(nc(C(F)(F)F)c2Br)C1
11,251 nM,Cc1ccc(-n2nc(C)c(CC(=O)NCc3ccc(F)cc3Cl)c2C)cn1
12,794 nM,CCN1C(=O)CC[C@@H]1C(=O)NCc1cccc(Cl)c1F
13,15.8 nM,Cc1c(Cl)cccc1CNC(=O)[C@@H]1CCC(=O)N1C
14,200 nM,CC(C)N1C(=O)CCC1(C)C(=O)NCc1ccc(Cl)cc1Cl (stereo unspecified)
15,251 nM,CN1CCOc2cccc(N3CCN(Cc4ccc(F)cc4Cl)C(=O)C3=O)c21
16,5.01 nM,CCN1C(=O)C(C)(C)C[C@H]1C(=O)NCc1cccc(C(F)(F)F)c1Cl
17,398 nM,O=C1CN(C(=O)c2cccc(C(F)(F)F)c2Cl)CCN1Cc1cccnc1
18,251 nM,O=C1C(=O)N(c2cccc(N3CCOCC3)c2)CCN1Cc1ccc(F)cc1Cl
19,10 nM,CN1C(=O)N(c2ccnn2C)C[C@H]1C(=O)NCc1ccc(Cl)cc1Cl
20,12.6 nM,Cc1c(Cl)cccc1N1CCN(Cc2ccc(F)cc2Cl)C(=O)C1=O
21,1000 nM,Cc1ccccc1N1CCN(Cc2c(F)cccc2Cl)C(=O)C1=O
22,200 nM,CN1CCN(C(=O)c2cccc(Cl)c2Cl)CC1=O
23,15.8 nM,CN1C(=O)NC[C@H]1C(=O)NCc1c(F)cc(Cl)cc1Cl
24,126 nM,Cn1ncc(F)c1CC(=O)NCc1ccc(F)cc1Cl
25,100 nM,CCN1C(=O)CCC1(C)C(=O)NCc1ccc(Cl)cc1Cl (stereo unspecified)
26,12.6 nM,O=C1CN(C(=O)c2cccc(C(F)(F)F)c2Cl)CCN1CC1CC1
